Experimental data published in US10537611B2, “Methods of treating lung cancer” (Five Prime Therapeutics, Inc., priority 2011, dated 2020).

Key:
[1] = test system: DMS114 xenograft model; test: DMS114 SCLC xenograft tumor growth inhibition; format: in vivo, mouse; conditions: Lung DMS114, IP 15 mg/kg BIW, FGFR1 amplified, P < 0.001
Method: FGFR1-ECD.339-Fc was formulated in PBS at 3 mg/ml and administered intraperitoneally (i.p.) at 15 mg/kg (300 μg/100 μl/mouse) twice a week for four weeks. Human albumin was purchased from Grifols USA (Los Angeles, Calif.; Cat. No. NDC 61953-0002-1), diluted to a working stock (3 mg/ml) with 0.9% sodium chloride, and was used as negative control at 300 μg/100 μl/mouse (15 mg/kg) administered twice a week for four weeks.
Six week old female SCID mice were purchased from Charles River Laboratories (Wilmington, Mass.) and were acclimated for 1 week before the start of the study. Human small cell lung cancer (SCLC) cell line DMS114 was used as the tumor model and was purchased from ATCC (Manassas, Va.; Cat. No. CRL-2066). The cells were cultured for three passages in Waymouth's MB 752/1 medium+10% FBS+2 mM L-glutamine at 37° C. in a humidified atmosphere with 5% CO2. […]
Tumor sizes were measured in each mouse on days 3, 10, 16, 19, 24, 27, and 31 following the day of tumor cell inoculation. The length and width of each tumor was measured using calipers and the tumor size calculated according to the formula: Tumor size (mm^3)=[…] Mice were euthanized as a “cancer death” when the subcutaneous tumor volumes exceeded 2000 mm^3 or when the tumors became excessively necrotic.

[2] = test system: DMS114 cells; test: CellTiter-Glo cell number, DMS114; format: cell-based, human; conditions: 15 μg/ml, 4 days, 10%, 1% or 0.1% FBS
Excerpt: A panel of lung cancer cell lines displaying potential amplification of the FGFR1 gene was identified using CONAN (http://www.sanger.ac.uk/cgi-bin/genetics/CGP/conan/search.cgi) and Tumorscape (http://www.broadinstitute.org/tumorscape/pages/portalHomejsf). CONAN and Tumorscape represent public data mining tools to extract gene copy number information for predefined or user defined loci across the SNP6.0 dataset of cancer. Lung cancer cell lines DMS53, DMS114, NCI-H1581 and NCI-H520 were identified as having potential amplification of the FGFR1 gene (>4 copies/cell) and were selected for further analysis. Human small cell lung cancer (SCLC) cell lines DMS53 and DMS114 were purchased from ATCC (Manassas, Va.; Cat. No. CRL-2062; Cat. No. CRL-2066, respectfully). The cells were cultured in Waymouth's MB 752/1 medium+10% FBS+2 mM L-glutamine at 37° C. in a humidified atmosphere with 5% CO2. […]
To determine cell number the CellTiter-Glo® Luminescent Cell Viability Assay (Promega, Madison, Wis.) was employed. CellTiter-Glo® is a homogeneous method of determining the number of viable cells in culture based on quantitation of the ATP present, an indicator of metabolically active cells. […] Luminescence was then determined on an EnVision™ Multilabel Plate Reader (PerkinElmer, Boston, Mass.) with a 0.2 second integration time. Results were expressed as relative light units (RLU)/well.

[3] = test system: mitogenic FGFs; test: Binding to mitogenic FGFs relative to FGF-23
Method: FGFR1-ECD.339-Fc binds to the mitogenic FGFs with 10 to 100-fold higher affinity than to FGF-23. […] The potential biological impact of this relatively weak FGFR1-ECD.339-Fc/FGF-23 binding was investigated in rats following four weekly doses of FGFR1-ECD.339-Fc at a dose range of 10-200 mg/kg/qwk.

[4] = test system: A549 xenograft model; test: A549 xenograft tumor growth inhibition; format: in vivo, mouse; conditions: Lung A549; IP 10 mg/kg BIW; non-amplified; P < 0.05
Excerpt: The impact of FGFR1-ECD.339-Fc on tumor growth was compared between FGFR1 gene amplified and non-amplified lung cancer xenograft models. Lung cell lines without FGFR1-amplification examined in this experiment were as follows: A549, NCI-H460, NCI-H226, NCI-H2126, NCI-H441, NCI-H358, NCI-H522 and Colo699. Non-amplified cell lines were purchased from ATTC (Manassas, Va.) and cultured according to supplier instructions. Lung cancer xenograft models using non-FGFR1 gene amplified cell lines were carried out substantially as described in Example 2.
Percentage tumor growth inhibition by FGFR1-ECD.339-Fc was determined by area-under-the-curve (AUC) analysis of xenograft growth curves treated with FGFR1-ECD.339-Fc compared to albumin control. […] The difference in FGFR1-ECD.339-Fc-mediated xenograft inhibition between FGFR1 gene amplified and non-amplified lung cancer xenograft models was statistically significant (P=0.0333).

higher affinity for mitogenic FGFs than for FGF-23 [3]: 10 to 100 fold
Substance: FGFR1-ECD.339-Fc: human FGFR1 extracellular domain ending at amino acid 339 fused to an Fc; SEQ ID NO: 6 (mature form), SEQ ID NO: 5 with signal peptide
TGI (%) [1]: 64%
cell number (CellTiter-Glo) [2]: reduced
TGI (%) [4]: 38%
